Target: T1, TaRXR (T. adhaerens RXR; GST-TaRXR) (Trichoplax adhaerens, UniProt A0A290WNL1)
T1 construct: full-length RXR cDNA in pGEX-2T, E. coli BL21 pLysS; N-terminal GST fusion on glutathione beads or thrombin-cleaved; starts MEDRSFK (from printed primer)
T1 sequence (A0A290WNL1 1-345): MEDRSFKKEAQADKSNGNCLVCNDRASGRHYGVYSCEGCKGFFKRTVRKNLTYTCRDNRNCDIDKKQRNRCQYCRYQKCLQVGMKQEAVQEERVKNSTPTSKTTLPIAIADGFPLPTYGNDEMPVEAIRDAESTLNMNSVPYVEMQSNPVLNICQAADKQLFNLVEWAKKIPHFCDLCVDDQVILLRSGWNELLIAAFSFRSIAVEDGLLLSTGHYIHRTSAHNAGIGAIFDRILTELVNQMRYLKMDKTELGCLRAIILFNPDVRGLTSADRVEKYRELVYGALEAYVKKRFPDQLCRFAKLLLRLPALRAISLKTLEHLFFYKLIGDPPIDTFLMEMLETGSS
Assay: radioligand saturation binding (GST-TaRXR on beads) and competition (thrombin-cleaved TaRXR)
Details: labelled compound (3H); 50 mM Tris-HCl pH 7.4, 1 mM EDTA, 120 mM KCl, 5 mM DTT, 8% glycerol, 0.3-0.5% CHAPS; 2 h on ice in dark

## CC1=C(/C=C/C(C)=C\C=C\C(C)=C\C(=O)O)C(C)(C)CCC1 [9-cis-retinoic acid]
  radioligand saturation binding (GST-TaRXR on beads) and competition (thrombin-cl): TaRXR prepared as thrombin cleaved TaRXR or GST-TaRXR binds 9-cis-RA with high affinity and specificity

— paper PMC5624297, “Trichoplax adhaerens reveals a network of nuclear receptors sensitive to 9-cis-retinoic acid at the base of metazoan evolution” (PeerJ, 2017)
